Data published in paper PMC8287907 (Nucleic Acids Research, 2021).
Entries after “also recorded” stand apart in the source; their conditions may differ.

Target: SUD-NM / TRF2 G4 interaction (Severe acute respiratory syndrome coronavirus 2, UniProt P0DTD1)
Format: binding, SARS-CoV-2
Conditions: His-SUD-NM 10 nM, biotinylated TRF2 G4 50 nM, TMP 100 to 500 nM

**Q.** How did the “Inhibition of the SUD/G4 interaction (in words)” value turn out when `Cc1cc2cc3c(C)cc(=O)oc3c(C)c2o1` [TMP, trimethyl psoralen] was run?
**A.** No inhibition; also recorded: does not inhibit
